Source: US9248187B2, “Oxadiazole inhibitors of leukotriene production for combination therapy” (Boehringer Ingelheim International GmbH, priority 2012, dated 2016)
Several values for one entry are separate records, joined by “and”; a condition that tells them apart may be missing. Equal entries are not always repeated.

Tests used:
[1] = biological target: T1, recombinant human FLAP protein (Homo sapiens, UniProt P20292); assay: FLAP binding assay (SPA, displacement of [125I]L-691,831); conditions: @1000 nM
T1 construct: made in house; host or cells: Sf9 insect cells (membrane fraction, 100,000 x g pellet)
T1 sequence (P20292 1-161): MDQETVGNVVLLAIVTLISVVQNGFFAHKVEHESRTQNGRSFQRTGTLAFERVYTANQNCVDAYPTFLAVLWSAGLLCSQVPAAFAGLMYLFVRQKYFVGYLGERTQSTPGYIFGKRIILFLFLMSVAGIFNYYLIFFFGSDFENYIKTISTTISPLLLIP
Procedure: Assessment of Biological Properties 1. Binding Assay
Cell pellets produced from sf9 insect cells expressing recombinant human FLAP protein are resuspended in buffer A [15 mM Tris-HCl (pH 7.5), 2 mM MgCl2, 0.3 mM EDTA, 1 mM PMSF]. The cells are lysed with a Dounce homogenizer and the material is centrifuged at 10,000×g for 10 minutes. The supernatant is then collected and centrifuged at 100,000×g for 60 minutes. To prepare membrane protein for an assay, an aliquot of the 100,000×g pellet is resuspended in 1 ml of buffer A, Dounce homogenized, and finally subjected to polytron mixing (30 seconds). Membrane protein (25 μl, 5 μg) is mixed with WGA SPA beads (Amersham) and stirred for 1 h.

[2] = tested on: atherosclerotic plaque in the descending aorta; assay: 13 week HF/HC diet rabbit model of atherosclerosis, on top of simvastatin; type: in vivo, NZW rabbits; conditions: compound 115 2.5 mg/kg and simvastatin 2.5 mg/kg; p=0.05
Procedure: The objective of the study is to determine if the compounds of Formula I provide additional reduction in atherosclerosis development in high fat/high cholesterol (HF/HC) fed rabbits on top of simvastatin compared to simvastatin alone. Treatment with a statin is considered the standard of care for atherosclerosis clinically. In order to determine if the anti-atherosclerotic effect observed in rabbits is effective on top of statin treatment, rabbits were treated with compound 115 (Table 1) in combination with simvastatin and the effects on atherosclerosis reduction with both control and statin treatment alone were compared. […] The rabbits were fed 125 g of rabbit chow each day and both food consumption and body weights were measured throughout the study period. […] The extent of atherosclerosis development was measured in the descending aorta after the vessels were pinned out on the silicone surface of metal trays and stained with Sunan IV stain. […] The percentage of plaque area of the descending aorta was determined. […] Atherosclerotic lesion formation was quantified by image analysis software using ImagePro Plus software. The mean of thee different sections 100 μm apart was determined. The mean value of each parameter was calculated for each different treatment group and compared to the control value. […]

[3] = tested on: proteinuria; conditions: clinical trial, human glomerulonephritis; cited from earlier work

Compound: CC(C)C(C)(c1ccc(-c2cnc(N)nc2)cc1)c1noc(O)n1 (stereo not drawn) [Example 88, 3-{1-[4-(2-Amino-pyrimidin-5-yl)-phenyl]-1,2-dimethyl-propyl}-[1,2,4]oxadiazol-5-ol]
- FLAP binding % inh [1]: 51% inh@1000 nM

Compound: CN(C)C(=O)Cn1cc(-c2nc([C@@](C)(c3ccc(-c4cnc(N)nc4)cc3)C3CC3)no2)cn1 (single isomer, unassigned) [Example 115]
- further reduction in plaque area compared to simvastatin alone [2]: 32% and 34%

Compound: CC(C)(C)Sc1c(CC(C)(C)C(=O)O)n(Cc2ccc(Cl)cc2)c2ccc(OCc3ccc4ccccc4n3)cc12 [MK-591]
- effect on proteinuria [3]: reduce proteinuria
